Assay results reported in patent US20240252461A1, “COMPOSITIONS AND METHODS FOR TREATMENT OF DEMYELINATION” (priority 2018, published 2024).

Assays:
[1] = tested on: MS; conditions: cited from earlier work
[2] = tested on: Experimental Autoimmune Encephalomyelitis (EAE) model; test: Murine Experimental Autoimmune Encephalomyelitis (EAE) model of multiple sclerosis; assay type: in vivo, C57BL/6 mice; conditions: glatiramer acetate 200 μg SC on day 0, alone
Procedure: In this study, the therapeutic effect of treatment with glatiramer acetate (Copaxone®) alone or in combination with Zn-DFO on multiple sclerosis (MS) is tested, using the murine Experimental Autoimmune Encephalomyelitis (EAE) model.
EAE is induced in 8-week-old female C57BL/6 mice by subcutaneous (SC) injection of 125 μg of myelin oligodendrocyte glycoprotein 35-55 peptide (MOG35-55) emulsified in complete Freund's adjuvant (CFA) containing 5 mg/ml heat-killed Mycobacterium tuberculosis into the left para-lumbar region. Immediately thereafter, and again at 48 h, the mice are inoculated intraperitoneal (IP) with 0.5 ml of pertussis toxin (400 ng). Seven days later, the mice are further challenged with an additional injection of MOG35-55 peptide in CFA injected into the right para-lumbar region.
Mice are treated with SC injection of 200 (μg glatiramer acetate (Copaxone®) per animal in mannitol 4% emulsion on day 0. Part of the animals are continued to be treated with Zn-DFO as IP injections, 2 mg/kg or 6 mg/kg, thrice a week till the end of the experiment (Day 28). Two additional groups of mice are treated with Zn-DFO analogously, but without the preceding injection with glatiramer acetate. The severity of the disease is assessed using the scale shown in Table 2 (Bittner et al. 2014).

[3] = Behavior of rats monitored for 90 min following IP injection; assay type: in vivo, rat; conditions: the three doses (250, 500, 1000 mg/kg IP)
Procedure: (§1) In particular, male Sprague-Dawley (SD) rats (300 g average body weight, 3 animals per group) were injected IP with DFO (250, 500, or 1000 mg/kg body weight). For comparison, Zn-DFO solution in freshly prepared saline was injected IP (250, 500, or 1000 mg/kg body weight, which are equivalent to 221, 442, or 883 mg DFO/kg body weight, respectively).
(§2) The behavior of the rats was monitored for 90 min following the injection. Then, the animals were euthanized using an injection of ketamine-xylazine, and their hearts, livers, left kidneys, and brains were excised and weighted. Brain samples (300 mg tissue) were washed homogenized in 3 ml Lysis buffer. Tissue homogenates were incubated at 110° C. for 5 min and centrifuged for 5 min at 14,500 relative centrifugal force (RCF). An equal volume of 40% trichloroacetic acid (TCA) solution was added, forming a solution containing 20% TCA, which was vortexed and centrifuged again. The supernatants were transferred into cuvettes, and DFO concentration was spectrophotometrically measured, after addition of 10 mM of ferric iron solution (as a weak complex of iron, ferric-nitrilo-triacetate, at pH=7.4), and scanning the range of λ=380−580 nm. The final concentration was calculated according to the Beer-Lambert law, using εDFO=2460 M^−1cm^−1: the total amount of DFO per gram tissue and per whole brain were calculated.

[4] = Blood-brain barrier penetration: DFO concentration in rat brain after IP injection; assay type: in vivo; conditions: for fraction of DFO that infiltrated the brain / DFO (mg/g organ) / DFO (mg/whole organ): SD rats; for fraction of DFO that infiltrated the brain: 90 min; for DFO (mg/g organ): brain; for DFO (mg/whole organ): whole brain
Procedure: In this study, the ability of the Zn-DFO complex to infiltrate into the brain was examined. Rats were injected intraperitoneally (IP) with increasing amounts of DFO alone or Zn-DFO complex, and the concentration of DFO was measured in their brains, thus monitoring their infiltrability.
as §1, §2

[5] = 90 min after IP injection of 250 mg/kg
[6] = 90 min after IP injection of 500 mg/kg
[7] = 90 min after IP injection of 1000 mg/kg

Compound	effect on the main outcome measures in MS (disease progression) ([1]; La Mantia et al., 2010)	reduction of relapses ([1]; relapsing-remitting MS, Hassan-Smith et al., 2011)	day on which peak clinical score is reached [2]	onset of the disease [2]	rats' behavior after injection [3]	fraction of DFO that infiltrated the brain ([4]; IP 250 mg/kg)	fraction of DFO that infiltrated the brain ([4]; IP 500 mg/kg)	fraction of DFO that infiltrated the brain ([4]; IP 1000 mg/kg)	DFO (mg/g organ) [4, 5]	DFO (mg/g organ) [4, 6]	DFO (mg/g organ) [4, 7]	fraction of DFO that had infiltrated into the brain ([4]; corresponding doses (250, 500, 1000 mg/kg IP), limited sensitivity of the instrument)	DFO (mg/whole organ) [4, 5]	DFO (mg/whole organ) [4, 6]	DFO (mg/whole organ) [4, 7]
glatiramer acetate	did not show any beneficial effect	approximately 30%	17 days	14 days	–	–	–	–	–	–	–	–	–	–	–
CC(=O)N(O)CCCCCNC(=O)CCC(=O)N(O)CCCCCNC(=O)CCC(=O)N(O)CCCCCN [DFO, N′-[5-(acetyl-hydroxy-amino)pentyl]-N-[5-[3-(5-aminopentyl-hydroxy-carbamoyl)propanoylamino]pentyl]-N-hydroxy-butane diamide]	–	–	–	–	no changes in rats' behavior	<0.0015%	<0.0015%	0.002%	<0.005 mg/g organ	<0.005 mg/g organ	0.008 ± 0.004 mg/g organ	≤ 0.002%	<0.005 mg/whole organ	<0.005 mg/whole organ	0.019 ± 0.008 mg/whole organ
